{
  "source": "the Kinase Knowledgebase extract (Sharma et al. 2016)",
  "note": "pIC50: −log10 of the molar value.",
  "data": [
    {"target": "EGFR (human) (UniProt P00533)", "sequence (P00533 whole entry, looked up)": "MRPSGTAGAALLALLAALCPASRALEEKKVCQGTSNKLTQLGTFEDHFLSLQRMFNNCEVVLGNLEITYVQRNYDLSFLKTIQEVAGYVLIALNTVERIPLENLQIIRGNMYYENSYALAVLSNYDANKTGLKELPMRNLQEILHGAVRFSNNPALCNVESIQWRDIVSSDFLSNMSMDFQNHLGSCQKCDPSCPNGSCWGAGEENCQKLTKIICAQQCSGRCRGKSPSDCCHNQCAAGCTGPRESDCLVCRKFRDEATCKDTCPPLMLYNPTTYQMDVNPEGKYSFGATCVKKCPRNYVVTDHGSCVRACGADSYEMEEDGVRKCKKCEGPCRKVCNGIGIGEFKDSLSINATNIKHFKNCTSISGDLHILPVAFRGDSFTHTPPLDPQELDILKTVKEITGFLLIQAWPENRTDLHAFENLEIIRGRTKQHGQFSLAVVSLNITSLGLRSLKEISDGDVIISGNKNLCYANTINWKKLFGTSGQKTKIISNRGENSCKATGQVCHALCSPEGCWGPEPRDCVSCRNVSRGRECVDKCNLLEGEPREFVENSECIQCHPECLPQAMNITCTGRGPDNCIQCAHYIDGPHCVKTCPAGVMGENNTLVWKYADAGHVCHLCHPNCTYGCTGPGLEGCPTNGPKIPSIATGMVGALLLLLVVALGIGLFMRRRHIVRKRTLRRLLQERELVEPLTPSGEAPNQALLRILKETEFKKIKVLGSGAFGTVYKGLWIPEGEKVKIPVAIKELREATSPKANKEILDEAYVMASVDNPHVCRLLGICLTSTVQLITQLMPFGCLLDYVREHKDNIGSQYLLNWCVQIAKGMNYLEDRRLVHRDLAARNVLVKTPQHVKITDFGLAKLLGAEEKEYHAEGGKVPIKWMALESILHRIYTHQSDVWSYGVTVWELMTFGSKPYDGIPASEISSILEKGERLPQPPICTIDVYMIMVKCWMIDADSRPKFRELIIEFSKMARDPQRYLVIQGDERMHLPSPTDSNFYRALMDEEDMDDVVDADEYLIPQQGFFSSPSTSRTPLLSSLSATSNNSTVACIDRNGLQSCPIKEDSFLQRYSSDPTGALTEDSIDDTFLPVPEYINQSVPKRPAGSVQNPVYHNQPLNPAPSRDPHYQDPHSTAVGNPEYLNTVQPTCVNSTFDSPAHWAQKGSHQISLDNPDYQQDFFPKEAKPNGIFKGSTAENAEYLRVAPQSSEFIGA", "settings": "kb", "values": [
      {"smiles": "COCC(=O)N1C[C@@H](O)C[C@@H]1COc1cc(OC)cc2ncnc(Nc3ccc(F)c(Cl)c3)c12", "pIC50": 6.54},
      {"smiles": "COc1cc(OC[C@H]2C[C@@H](O)CN2C(=O)CO)c2c(Nc3ccc(F)c(Cl)c3)ncnc2c1", "pIC50": 6.93},
      {"smiles": "COc1cc(OC[C@H]2CCCN2C(C)=O)c2c(Nc3ccc(F)c(Cl)c3)ncnc2c1", "pIC50": 7.55},
      {"smiles": "COc1cc(OC[C@H]2C[C@H](O)CN2C(C)=O)c2c(Nc3ccc(F)c(Cl)c3)ncnc2c1", "pIC50": 7.12},
      {"smiles": "O=C(CO)N1CCC[C@@H]1COc1cc(OCCO)cc2ncnc(Nc3ccc(F)c(Cl)c3)c12", "pIC50": 6.89},
      {"smiles": "COc1cc(OC[C@H]2CCCN2C(=O)CN(C)C)c2c(Nc3ccc(F)c(Cl)c3)ncnc2c1", "pIC50": 6.86},
      {"smiles": "CCOCCOc1cc(OC[C@H]2CCCN2C(=O)CO)c2c(Nc3ccc(F)c(Cl)c3)ncnc2c1", "pIC50": 7.00},
      {"smiles": "COc1cc(OC[C@H]2CCCN2C(=O)CO)c2c(Nc3ccc(F)c(Cl)c3)ncnc2c1", "pIC50": 7.04},
      {"smiles": "COc1cc(OC[C@@H]2CCCN2C(=O)CN2CCCC2)c2c(Nc3ccc(F)c(Cl)c3)ncnc2c1", "pIC50": 6.89},
      {"smiles": "COc1cc(OC[C@@H]2C[C@H](O)CN2C(=O)CN(C)C)c2c(Nc3ccc(F)c(Cl)c3)ncnc2c1", "pIC50": 6.95},
      {"smiles": "COc1cc(OC[C@@H]2C[C@@H](O)CN2C(=O)CO)c2c(Nc3ccc(F)c(Cl)c3)ncnc2c1", "pIC50": 6.81},
      {"smiles": "COc1cc(OC[C@@H]2CCCN2C(=O)CN(C)C)c2c(Nc3ccc(F)c(Cl)c3)ncnc2c1", "pIC50": 6.85}
    ]}
  ]
}
